Read-outs that look alike come from different tables or passages of the source.
What was measured:
[1] = target: T1, delta opioid receptor (NG108-15 cell membranes) (Mus musculus, UniProt P32300); test: Delta Opioid Receptor Functional Assay: [35S]GTPγS Binding in NG108-15 Cell Membranes, Version 2; type: biochemical; details: NG108-15 cell membranes, version 2; for EC50: [35S]GTPγS, read-out: DOR GTP-binding Assay_v2_ EC50; for DOR GTP-binding Assay v2 (% I): % inhibition of agonist-stimulated GTPγS binding
T1 construct: NG108-15 cell membranes were purchased from Applied Cell Sciences (Rockville, Md.); host or cells: NG108-15 cells (membranes purchased)
Method: NG108-15 cell membranes were purchased from Applied Cell Sciences (Rockville, Md.). 8 mg/ml of membrane protein suspended in 10 mM TRIS-HC pH 7.2, 2 mM EDTA, 10% sucrose.
Membranes were maintained at 4-8° C. A portion (1 ml) of membranes was added into 10 ml cold binding assay buffer. The assay buffer contained 50 mM Tris, pH 7.6, 5 mM MgCl2, 100 mM NaCl, 1 mM DTT and 1 mM EGTA. The membrane suspension was homogenized with a Polytron for 2 times and centrifuged at 3000 rpm for 10 min. The supernent was then centrifuged at 18,000 rpm for 20 min. The pellet was saved in a tube and 10 ml assay buffer was added into the tube. The pellet and buffer were mixed with a Polytron.
The pellet membranes (75 μg/ml) were preincubated with SPA (10 mg/ml) at 25° C. for 45 min in the assay buffer. The SPA (5 mg/ml) coupled with membranes (37.5 μg/ml) was then incubated with 0.1 nM [^35S] GTPγS in the same Tris buffer containing 100 μM GDP in total volume of 200 μl. Increasing concentrations of receptor agonists were used to stimulate [^35S] GTPγS binding. The basal binding was tested in the absent agonists and no specific binding was tested in the present 10 μM unlabeled GTPγS. The data were analyzed on a Top counter.
[formula] % Inhibition=(% stimulation by 1 μM SNC80−% stimulation by 1 μM SNC80 in presence of test compound)×100/(% Stimulation by 1 μM SNC80−100) % of Basal=(stimulate−non specific)*100/(basal−non specific). EC50 values were calculated using GraphPad Prism.

[2] = target: T2, mu opioid receptor (CHO-hMOR cell membranes) (Homo sapiens, UniProt P35372); test: Mu Opioid Receptor Functional Assay: [35S]GTPγS Binding in CHO-hMOR Cell Membranes, Versions 1 and 2; type: biochemical; details: for MOR GTP binding assay_v2 (% I): version 2, % inhibition of agonist-stimulated GTPγS binding; for EC50: version 2, read-out: MOR GTP binding assay v2 EC50; for MOR GTP binding assay_v1 (% I): version 1, % inhibition of agonist-stimulated GTPγS binding
T2 construct: purchased Receptor Biology, Inc. (Baltimore, Md.); host or cells: CHO cells (recombinant expression)
In short: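 Agonist-stimulated [35S]GTPγS (0.5 nM) binding measured by SPA in human MOR CHO membranes, buffer pH 7.6 with 100 mM NaCl, 5 mM MgCl2. Antagonist mode: % inhibition of stimulation by 1 μM SNC80; agonist mode: EC50 fitted. Basal binding without agonist, non-specific with 10 μM cold GTPγS.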

[3] = target: T3, human mu opioid receptor (Homo sapiens, UniProt P35372); test: Human Mu Opioid Receptor Binding Assay (CHO membranes, 3H-Damgo); details: read-out: hKi μ
T3 construct: purchased Perkin Elmer RBHOMM400UA; host or cells: Chinese Hamster Ovary cells (recombinant expression)
In short: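 Radioligand displacement of ³H-Damgo (diluted to 3.6 nM pre-mix) from recombinant human mu receptor in CHO membranes, 2 h, room temperature, 50 mM Tris pH 7.5 with 5 mM MgCl2. Bound label read by filtration and scintillation counting; 1 μM unlabelled Damgo defines nonspecific binding.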

[4] = target: T4, human delta subtype 2 opioid receptor (Homo sapiens, UniProt P41143); test: Human Delta Opioid Receptor Binding Assay (CHO membranes, 3H-Naltrindole); details: read-out: hKi δ
T4 construct: purchased Perkin Elmer RBHODM400UA; host or cells: Chinese Hamster Ovary cells (recombinant expression)
In short: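 Compound displacement of tritiated naltrindole (6 nM working dilution) measured by scintillation counting after GF/C filtration. Receptor source: recombinant CHO membranes; buffer 50 mM Tris, 5 mM MgCl2, pH 7.5; 30 min room-temperature incubation. 1 μM cold naltrindole sets nonspecific binding.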

[5] = target: T5, delta opioid receptor (Rattus norvegicus, UniProt P33533); test: Rat Brain Delta Opioid Receptor Binding Assay ([3H]DPDPE); details: rat forebrain membranes, margin of error 10-20%, read-out: r Ki δ
T5 construct: from tissue; host or cells: forebrain of male Wistar rats
Method: (§1) Male, Wistar rats (150-250 g, VAF, Charles River, Kingston, N.Y.) are killed by cervical dislocation, and their brains removed and placed immediately in ice cold Tris HCl buffer (50 mM, pH 7.4). The forebrains are separated from the remainder of the brain by a coronal transection, beginning dorsally at the colliculi and passing ventrally through the midbrain-pontine junction. After dissection, the forebrains are homogenized in Tris buffer in a Teflon® glass homogenizer. The homogenate is diluted to a concentration of 1 g of forebrain tissue per 80 mL Tris and centrifuged at 39,000×g for 10 min. The pellet is resuspended in the same volume of Tris buffer containing 5 mM MgCl2 with several brief pulses from a Polytron homogenizer. This particulate preparation is used for the delta opioid binding assays. Following incubation with the delta selective peptide ligand ˜4 nM [^3H]DPDPE at 25° C. for 2.5 h in a 96-well plate with total volume of 1 mL, the plate contents are filtered through Wallac filtermat B sheets on a Tomtec 96-well harvester. The filters are rinsed three times with 2 mL of 10 mM HEPES (pH 7.4), and dried in a microwave oven 2 min twice. To each sample area 2×50 μL of Betaplate Scint scintillation fluid (LKB) is added and analyzed on a LKB (Wallac) 1205 BetaPlate liquid scintillation counter.
(§2) The data are used to calculate either the % inhibition compared to control binding (when only a single concentration of test compound is evaluated) or a Ki value (when a range of concentrations is tested). % inhibition is calculated as: [(total dpm−test compound dpm)/(total dpm−nonspecific dpm)]*100. Kd and Ki values were calculated using GraphPad PRISM data analysis program.

[6] = target: T6, mu opioid receptor (Rattus norvegicus, UniProt P33535); test: Rat Brain Mu Opioid Receptor Binding Assay (and Version 2a, [3H]DAMGO); details: rat forebrain membranes, margin of error 10-20%, read-out: r Ki μ
T6 construct: from tissue; host or cells: forebrain of male Wistar rats
Method: as §1, with “mu-opioid” for “delta opioid”, “Following incubation with the delta selective peptide ligand ˜4 nM [^3H]DPDPE at 25° C. for 2.5 h in a 96-well plate with total volume of 1 mL, the plate contents are filtered through Wallac filtermat B sheets on a Tomtec 96-well harvester.” left out, “(pH7.4),” for “(pH 7.4),”
as §2, with “dpm-test” for “dpm−test”, “dpm-nonspecific” for “dpm−nonspecific”
Male, Wistar rats (150-250 g, VAF, Charles River, Kingston, N.Y.) were killed by cervical dislocation, and their brains removed and placed immediately in ice-cold Tris HCl buffer (50 mM, pH 7.4). The forebrains were separated from the remainder of the brain by a coronal transection, beginning dorsally at the colliculi and passing ventrally through the midbrain-pontine junction. After dissection, the forebrains were homogenized in Tris buffer in a Teflon®-glass homogenizer. The homogenate was diluted to a concentration of 1 g of forebrain tissue per 80 mL Tris and centrifuged at 39,000×g for 10 min. The pellet was resuspended in the same volume of Tris buffer containing 5 mM MgCl2 with several brief pulses from a Polytron homogenizer. This particulate preparation was used for the mu opioid binding assay. Following incubation with 0.8 nM of the mu selective ligand [^3H]DAMGO at 25° C. for 2.5 h in a 96-well plate with total 1 mL, the plate contents were filtered through Wallac filtermat B sheets on a Tomtec 96-well harvester. The filters were rinsed three times with 2 mL of 10 mM HEPES (pH 7.4), and dried in a microwave oven. To each sample area, Betaplate Scint scintillation fluid (LKB) was added and the resulting radioactivity quantified on a LKB (Wallac) 1205 BetaPlate liquid scintillation counter. Kd and Ki values were calculated using the GraphPad PRISM data analysis program.

[7] = tested on: novel environment-stressed mice; test: In Vivo Assay-Stress-Induced Fecal Output (Fecal Output for 1 hr); design: species or system mouse; details: 30 mg/kg oral, 1 hr; for response vs control in vivo at 30 mg/kg: Mus musculus, po, 1 h
Source text: This assay evaluates the fecal output in novel environment-stressed mice to that of acclimated controls.
Methods: Adult, male, Crl:CD-1(ICR) mice, weighing ˜30-35 g were used in these studies, with a minimum of 10 mice per dose group. One group of mice was assigned as acclimated, or “non-stressed” controls. These control mice were transported from colony housing, where they were housed 3/cage in polycarbonate cages with access to food and water ad lib. to the procedure room. The mice were removed from their home cages and individually housed in 20 cm wide×20 cm deep×15 cm tall cages, equipped with a wire mesh bottom where they remained for a 16-18 hr period of acclimation to their novel environment. Mice were allowed access to food and water ad lib. during acclimation. The other groups of mice were assigned as non-acclimated, or “stressed” treatment groups. Each mouse in each group was weighed and vehicle, or test compound, was intragastrically administered by oral intubation in 0.5% methylcellulose. Mice were allowed access to water only ad lib. during the test period. After compound administrations, acclimated (control) as well as non-acclimated (stressed) mice were individually housed in a 20 cm wide×20 cm deep×15 cm tall cage, with a wire mesh bottom. An absorbant cardboard is placed beneath the cages. The number of fecal pellets excreted by each mouse was determined at hourly intervals following placement of the mice in the individual cages. Raw Data=# of fecal pellets/mouse/hr. […]

T5 sequence (P33533 whole entry): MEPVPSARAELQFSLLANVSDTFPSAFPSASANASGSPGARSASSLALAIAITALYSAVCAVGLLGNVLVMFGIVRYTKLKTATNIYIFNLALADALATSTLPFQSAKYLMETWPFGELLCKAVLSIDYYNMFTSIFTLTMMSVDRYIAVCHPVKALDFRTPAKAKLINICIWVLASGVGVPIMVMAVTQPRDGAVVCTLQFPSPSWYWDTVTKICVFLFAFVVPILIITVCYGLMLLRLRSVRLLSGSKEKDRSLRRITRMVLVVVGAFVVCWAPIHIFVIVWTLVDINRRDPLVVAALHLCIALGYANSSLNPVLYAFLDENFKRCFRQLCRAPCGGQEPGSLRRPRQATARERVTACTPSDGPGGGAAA
T1 sequence (P32300 whole entry): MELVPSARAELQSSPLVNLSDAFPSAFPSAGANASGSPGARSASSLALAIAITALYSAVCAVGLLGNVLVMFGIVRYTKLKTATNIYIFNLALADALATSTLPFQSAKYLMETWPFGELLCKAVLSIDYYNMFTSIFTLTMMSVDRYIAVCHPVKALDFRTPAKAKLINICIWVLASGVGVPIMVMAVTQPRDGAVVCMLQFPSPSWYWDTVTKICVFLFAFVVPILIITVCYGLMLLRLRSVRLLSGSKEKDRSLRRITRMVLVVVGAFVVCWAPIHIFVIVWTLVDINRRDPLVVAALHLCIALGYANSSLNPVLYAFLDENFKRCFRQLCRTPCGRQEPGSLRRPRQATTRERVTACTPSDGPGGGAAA
T2 sequence (P35372 whole entry): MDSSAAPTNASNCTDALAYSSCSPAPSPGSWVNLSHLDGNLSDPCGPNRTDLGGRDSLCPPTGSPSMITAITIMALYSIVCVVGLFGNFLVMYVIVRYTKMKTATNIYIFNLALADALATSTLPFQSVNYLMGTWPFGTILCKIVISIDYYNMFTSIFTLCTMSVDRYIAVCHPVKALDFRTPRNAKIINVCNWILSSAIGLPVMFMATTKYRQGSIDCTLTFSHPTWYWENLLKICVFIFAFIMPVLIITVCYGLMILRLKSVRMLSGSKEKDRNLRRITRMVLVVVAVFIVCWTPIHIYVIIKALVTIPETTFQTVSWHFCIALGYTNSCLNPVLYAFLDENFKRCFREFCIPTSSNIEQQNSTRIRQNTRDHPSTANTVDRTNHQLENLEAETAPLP
T3 sequence (P35372 whole entry): as above
T6 sequence (P33535 whole entry): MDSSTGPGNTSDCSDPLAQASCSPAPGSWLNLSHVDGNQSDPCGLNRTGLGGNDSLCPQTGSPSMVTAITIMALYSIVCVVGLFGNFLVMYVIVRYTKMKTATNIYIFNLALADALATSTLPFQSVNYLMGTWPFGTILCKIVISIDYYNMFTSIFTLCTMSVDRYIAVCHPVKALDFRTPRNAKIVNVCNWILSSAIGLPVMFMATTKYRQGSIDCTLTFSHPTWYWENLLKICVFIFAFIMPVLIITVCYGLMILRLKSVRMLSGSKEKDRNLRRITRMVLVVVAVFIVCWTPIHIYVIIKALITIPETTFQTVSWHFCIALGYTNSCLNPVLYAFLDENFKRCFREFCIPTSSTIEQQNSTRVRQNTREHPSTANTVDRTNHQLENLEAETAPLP
T4 sequence (P41143 whole entry): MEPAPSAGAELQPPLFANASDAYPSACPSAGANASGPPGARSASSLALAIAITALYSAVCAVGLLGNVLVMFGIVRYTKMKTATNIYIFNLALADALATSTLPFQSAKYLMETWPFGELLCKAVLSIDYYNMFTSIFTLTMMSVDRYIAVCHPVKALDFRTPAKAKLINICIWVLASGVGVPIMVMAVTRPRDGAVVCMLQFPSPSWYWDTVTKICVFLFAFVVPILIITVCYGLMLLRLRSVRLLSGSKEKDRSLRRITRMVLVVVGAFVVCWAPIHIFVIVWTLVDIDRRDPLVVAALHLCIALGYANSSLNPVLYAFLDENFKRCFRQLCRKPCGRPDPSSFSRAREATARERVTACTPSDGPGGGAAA

Row | Compound | EC50 [1] [nM] | DOR GTP-binding Assay v2 (% I) [1] [%] | MOR GTP binding assay_v2 (% I) [2] [%] | EC50 [2] [nM] | Ki [4] [nM] | Ki [5] [nM] | Ki [6] [nM] | also measured
1 | Cc1cc(C(N)=O)cc(C)c1C[C@H](N)C(=O)N(Cc1ccc(C(=O)O)cn1)[C@@H](C)c1nc(-c2ccccc2)c[nH]1 [Cpd 253] | 1.35 | 52.00 | 28.00 | 251 |  |  |  | 
2 | COC(=O)c1ccc(CN(C(=O)[C@@H](N)Cc2c(C)cc(C(N)=O)cc2C)[C@@H](C)c2nc(-c3ccccc3)c[nH]2)cc1 [Cpd 51] | 27 | 66.04 |  |  | 113 |  |  | Ki [3]: 2.7 nM
3 | Cc1cc(C(N)=O)cc(C)c1C[C@H](N)C(=O)N(Cc1ccc(C(=O)O)nc1)[C@@H](C)c1nc(-c2ccccc2)c[nH]1 [Cpd 254] | 6.27 | 62.00 | 42.00 | 316 |  |  |  | 
4 | COC(=O)c1ccc(CN(C(=O)[C@@H](N)Cc2c(C)cc(C(N)=O)cc2C)[C@@H](C)c2nc(-c3ccccc3)c[nH]2)nc1 [Cpd 252] | 32.1 | 66.00 | 24.00 | 4.15 |  |  |  | 
5 | N[C@@H](Cc1ccc(O)cc1)C(=O)N(Cc1nc(-c2ccccc2)c[nH]1)C1CCCCC1 [Cpd 191] |  |  |  |  | > 10000 | 727 | 189 | 
6 | CN(Cc1nc(-c2ccccc2)c[nH]1)C(=O)[C@@H](N)Cc1ccc(O)cc1 [Cpd 198] |  |  |  |  | > 10000 | 5180 | 152 | Ki [3]: 140 nM
7 | COc1ccc(CN(C(=O)[C@@H](N)Cc2c(C)cc(C(N)=O)cc2C)[C@@H](C)c2nc(-c3cccc(C(=O)O)c3)c[nH]2)cc1OC [Cpd 20] | > 10000 | 78.74 |  |  |  |  |  | Ki [3]: 63 nM
8 | Cc1cc(C(N)=O)cc(C)c1C[C@H](N)C(=O)N(Cc1nc(-c2ccccc2)c[nH]1)C(C)C [Cpd 178] |  |  |  |  |  | 104 | 0.6 | MOR GTP binding assay_v1 (% I) [2]: 10.00%; Fecal Output (# pellets) cpd ([7]; novel environment-stressed mice): 5.5 pellets; response vs control in vivo at 30 mg/kg ([7]; relative to acclimated control, read-out: Fecal Output cpd % control): 172%; response vs control in vivo at 30 mg/kg ([7]; relative to novel environment stress (NES) vehicle group, read-out: Fecal Output cpd % NES): 62.5%
9 | COC(=O)c1ccc(CN(C(=O)[C@@H](N)Cc2c(C)cc(C(N)=O)cc2C)[C@@H](C)c2nc(-c3ccccc3)c[nH]2)cn1 [Cpd 255] | 13.1 | 54.00 | 33.00 | 3.48 |  |  |  | 
10 | COC(=O)c1cccc(CN(C(=O)[C@@H](N)Cc2c(C)cc(C(N)=O)cc2C)[C@@H](C)c2nc(-c3ccccc3)c[nH]2)n1 [Cpd 313] | 5.03 | 49 | 29.00 | 50.6 |  |  |  | 
11 | COC(=O)c1cc(CN(C(=O)[C@@H](N)Cc2c(C)cc(C(N)=O)cc2C)[C@@H](C)c2nc(-c3ccccc3)c[nH]2)ccn1 [Cpd 311] | 1.02 | 41.00 |  |  |  |  |  | 
12 | N[C@@H](Cc1ccc(O)cc1)C(=O)N(Cc1nc(-c2ccccc2)c[nH]1)CC1CC1 [Cpd 193] |  |  |  |  | > 10000 | 182 | 21.1 | MOR GTP binding assay_v1 (% I) [2]: 54.00%; MOR GTP assay_v1 % of Basal ([2]; version 1, basal binding = 100%): 182.00%
